Key:
[1] = test system: anti-PEG antibody response; assay: Prophylaxis model: anti-PEG antibody response in PEG-naïve mice immunized with PEG-KLH (serum ELISA); format: in vivo, BALB/c mice
Method: Pre-immunization blood samples were collected by retroorbital bleeding on Day −5. All other blood draws were collected on the days indicated. For testing, pools of serum from each group (n=5) were generated by mixing equal volumes of serum from each mouse in the group. Treatments were as outlined below.
(§1) ELISAs were carried out as follows. Plates were coated overnight at 4° C. with 0.5 mcg antigen in 100 uL sodium carbonate coating buffer, then washed twice with PBS and blocked with 300 uL Blocking Buffer (nonfat dry milk-PBS (5% w/v) or 1× fish gel (Rockland immunochemicals)) at room temperature for 1 hr. […] After washing 3× for 5 minutes each with PBS, 100 uL TMBE was added to each well and a kinetic read taken for 5 minutes. Plates were allowed to continue the color development reaction for a total of 30 minutes at which time 100 uL stop solution was added and plates read. […]
In the present experiment, we first studied the anti-PEG IgM antibody response. […] Anti-PEG IgM antibodies were then measured against PEG-BSA by ELISA from bleeds collected on Day −5 and Day 9 (serum dilution 1:500)(FIG. 2).
In the present experiment, detection of IgG antibodies on Day 9 is not generally expected as this antibody subclass generally takes two weeks or more to emerge after immunization. […] The anti-PEG IgG response was assessed by ELISA as described above, using a serum dilution of 1:500.

[2] = test system: anti-PEG antibody response; assay: Treatment model: mice with existing anti-PEG antibody response from PEG-KLH (serum ELISA); format: in vivo, BALB/c mice; conditions: PEG alone before and after PEG-KLH boosting (P/P), Day 21 and Day 28; bleed Day 30; serum 1:500; FIG. 6
Description: Male BALB/c mice (aged 6-8 weeks) were immunized intraperitoneally (i.p.) with PEG conjugated to KLH (PEG-KLH) using Complete Freund's adjuvant on Day 1 (50 mcg) and boosted with the same conjugate using Incomplete Freund's adjuvant on Day 18 (25 mcg). Pre-immunization blood samples were collected by retroorbital bleeding on Day −5. All other blood draws were collected on the days indicated. For testing, pools of serum from each group (n=5) were generated by mixing equal volumes of serum from each mouse in the group. Treatments were as outlined below.
as §1
In this treatment scenario, to generate anti-PEG antibodies prior to treatment, mice were first immunized with PEG-KLH conjugate on Day 0 and boosted on Day 22 (FIG. 5). […] Anti-PEG IgG antibodies were measured on Day 30 by ELISA as indicated above (serum diluted 1:500). […]

With MeO-23PEG-Ethanolamine the “anti-PEG IgG antibodies (ELISA)” value ([1]; treatment Day 0 and Day 7, additional PEG-KLH immunization Day 22, bleed Day 26, serum 1:500, FIG. 4) was “readily detected”, the “anti-PEG IgM antibodies (ELISA against PEG-BSA)” value ([1]; treatment i.p. Day 0 and Day 7, PEG-KLH Day 1, bleed Day 9, pooled serum 1:500, FIG. 3) was “readily detected” and the “anti-PEG IgG antibodies” value [2] was “had no effect on anti-PEG IgG antibodies”.
